Measured values: US20020072474A1, “Herbicidal compositions” (priority 2000, published 2002)

Legend:
[1] = test system: AVEFA (Avena fatua); assay: Activity against grass weeds, post-emergence spray in pots in controlled-environment cabinet, visual scoring; assay type: in vivo; conditions: mesosulfuron-methyl 60 g a.i./ha (Silwet L77 50 g a.i./ha, sodium lactate 150 g a.i./ha where present); sprayed four weeks after sowing, water 300 l/ha; visual scoring 14 days after application, 0% = no damage to 100% = all plants dead
Method: (§1) The individual components herbicide, surfactant and humectant as stated in Table 1 with regard to the application rates were added with stirring to a water application rate of 300 I/ha so that a homogeneous spray mixture was formed. The herbicide employed was mesosulfuron-methyl as 20 percent water-dispersible powder. The surfactant used was Silwet®L77 (Wacker) and the humectant used was sodium lactate as 50 percent aqueous solution (Merck KGaA, Darmstadt). Seeds of the harmful plants AVEFA and LOLMU were sown in a sandy loam soil in round pots type 13 in a controlled-environment cabinet and watered slightly. During the entire experiment period, the substrate only received minimal irrigation. A daytime temperature of 18° C. and a night time temperature of 16° C. were adhered to, a uniform day length of 16 hours being achieved by additional illumination with sodium vapor lamps (approx. 7000 lux). The relative atmospheric humidity was 50%. Four weeks after sowing, the plants were treated on a laboratory spray conveyor with the spray mixture which had been prepared in accordance with Example 1. The water application rate for the spray application of the preparations was 300 I/ha. After the treatment, the plants were returned to the controlled-environment cabinet. […]

[2] = test system: LOLMU (Lolium multiflorum); assay: as above; assay type: in vivo; conditions: mesosulfuron-methyl 60 g a.i./ha (Silwet L77 50 g a.i./ha, sodium lactate 150 g a.i./ha where present); sprayed four weeks after sowing, water 300 l/ha; visual scoring 14 days after application, 0% = no damage to 100% = all plants dead
Method: as §1

For `COC(=O)c1ccc(CNS(C)(=O)=O)cc1S(=O)(=O)NC(=O)Nc1nc(OC)cc(OC)n1` [Mesosulfuron, mesosulfuron-methyl], the “Damage in % AVEFA” value [1] was 22% and the “Damage in % LOLMU” value [2] was 18%.
